≈ marks a conversion by molar mass, not a printed value. Positions of bridges follow the written chain, without caps; N, C: chain ends. Non-standard residues stand in square brackets, D forms with d. Residues, ends and D or L forms follow the SMILES beside them. dCha = N[C@H](CC1CCCCC1)C(=O)O
What was measured:
MRSA ATCC 33591 = experiment: Time-kill kinetics; assay type: cell-based, Staphylococcus aureus; settings: 2.5 μg/mL (10× MIC), MHB with 0.002% polysorbate 80, 37 °C, two independent experiments in duplicate
Method: Early-stage time-kill kinetics for analogue 12 against MRSA ATCC 33591 were performed using vancomycin as a control, following the protocol described in Section VIII, Supporting Information.
3 Time-kill kinetics of Novltex analogue 12 and clinical antibiotic (vancomycin) against MRSA 33591. […] Results are the mean ± SD of two independent experiments performed in duplicate.
(§1) MICs were performed as previously reported 4. For MIC testing all peptides were dissolved in DMSO.
(§2) Bacterial cultures were grown overnight on Mueller-Hinton Agar (MHA) plates and adjusted to a final inoculum of 10^5 – 10^6 CFU/mL. 100 µl of ino culum in Meuller -Hinton broth (MHB) was mixed with equal volume of peptides (dissolved in MHB) at 2x their concentration in a 96 well plate . For daptomycin MIC determination, the same protocol was followed with the addition of 50 mg/L calcium chloride to the medium. MIC values were determined in the media contain ing polysorbate 80 (0.002%, v/v) to prevent non -specific adsorption of the peptides to plastic surfaces. The final peptides concentrations ranged from 0.0625 – 32 µg/mL. The 96 well plates were then incubated at 37 °C for 24 h. All the experiments were performed in two independent duplicates and the MIC was determined as the lowest concentration in which no visible growth was observed.
Antibiotics MIC break points ( µg/mL)
Table. […]

[1] = tested on: MDR clinical strains of S. aureus and E. faecium; assay type: cell-based, Staphylococcus aureus; Enterococcus faecium; settings: range over 4 S. aureus and 3 E. faecium strains
Method: as §1
as §2, with “observed. […]” for “observed.”

[2] = tested on: Multidrug-Resistant (MDR) E. faecium; experiment: microbe, parasite or virus in culture

CC(C)C[C@@H]1NC(=O)[C@H](C)NC(=O)[C@H](NC(=O)[C@H](CO)NC(=O)[C@@H](CCCCN)NC(=O)[C@@H](CC2CCCCC2)NC(=O)[C@@H](N)Cc2ccccc2)[C@H](C)OC(=O)[C@H](CC(C)C)NC1=O [analogue 12, Leu2Cha–Novltex] (H-F[dCha][dK]S[dT]ALL; ester 5-C)
time to significant bacterial killing (MRSA ATCC 33591): ≤ 6 h
MIC against both groups of MDR clinical strains [1]: 0.063 to 0.5 µg/mL
MIC, Enterococcus faecium 1563254 ([2]; MDR clinical isolate 1563254, MHB, 0.002% polysorbate 80, 37 °C, 24 h, daptomycin with 50 mg/L calcium chloride): 0.25 µg/mL (≈ 0.273 µM)
MIC, Enterococcus faecium 1581582 ([2]; MDR clinical isolate 1581582, MHB, 0.002% polysorbate 80, 37 °C, 24 h, daptomycin with 50 mg/L calcium chloride): 0.5 µg/mL (≈ 0.547 µM)
MIC, Enterococcus faecium 1766686 ([2]; MDR clinical isolate 1766686, MHB, 0.002% polysorbate 80, 37 °C, 24 h, daptomycin with 50 mg/L calcium chloride): 0.125 µg/mL (≈ 0.137 µM)
MIC range against MDR E. faecium strains ([2]; range over the three clinical isolates): 0.125 to 0.5 µg/mL
